Here are results for 32 compounds from US8796268B2, “Heteroaryls and uses thereof” (Millennium Pharmaceuticals, Inc., priority 2010, dated 2014).

The structures appear in SMILES notation.

Common to all, as to assay type: biochemical
In one assay the target is T1, Human PI3K alpha (Homo sapiens, UniProt P42336).
T1 construct: His (N); host or cells: SF9 insect cells (baculovirus)
Kind of assay: Human PI3K alpha enzyme assay (HTRF). The note with it: concentration not given, b1387 states 1.1 μM for PI3K α and β; for inhibition at 1.1 µM: read-out: p110 alpha Percent Inhibition. A general note: Time-resolved FRET reads energy transfer from a long-lived donor to a nearby acceptor.

The target in a further assay is T2, Human PI3K beta (Homo sapiens, UniProt P42338).
T2 construct: His (N); host or cells: SF9 insect cells (baculovirus)
T2 sequence (P42338 whole entry): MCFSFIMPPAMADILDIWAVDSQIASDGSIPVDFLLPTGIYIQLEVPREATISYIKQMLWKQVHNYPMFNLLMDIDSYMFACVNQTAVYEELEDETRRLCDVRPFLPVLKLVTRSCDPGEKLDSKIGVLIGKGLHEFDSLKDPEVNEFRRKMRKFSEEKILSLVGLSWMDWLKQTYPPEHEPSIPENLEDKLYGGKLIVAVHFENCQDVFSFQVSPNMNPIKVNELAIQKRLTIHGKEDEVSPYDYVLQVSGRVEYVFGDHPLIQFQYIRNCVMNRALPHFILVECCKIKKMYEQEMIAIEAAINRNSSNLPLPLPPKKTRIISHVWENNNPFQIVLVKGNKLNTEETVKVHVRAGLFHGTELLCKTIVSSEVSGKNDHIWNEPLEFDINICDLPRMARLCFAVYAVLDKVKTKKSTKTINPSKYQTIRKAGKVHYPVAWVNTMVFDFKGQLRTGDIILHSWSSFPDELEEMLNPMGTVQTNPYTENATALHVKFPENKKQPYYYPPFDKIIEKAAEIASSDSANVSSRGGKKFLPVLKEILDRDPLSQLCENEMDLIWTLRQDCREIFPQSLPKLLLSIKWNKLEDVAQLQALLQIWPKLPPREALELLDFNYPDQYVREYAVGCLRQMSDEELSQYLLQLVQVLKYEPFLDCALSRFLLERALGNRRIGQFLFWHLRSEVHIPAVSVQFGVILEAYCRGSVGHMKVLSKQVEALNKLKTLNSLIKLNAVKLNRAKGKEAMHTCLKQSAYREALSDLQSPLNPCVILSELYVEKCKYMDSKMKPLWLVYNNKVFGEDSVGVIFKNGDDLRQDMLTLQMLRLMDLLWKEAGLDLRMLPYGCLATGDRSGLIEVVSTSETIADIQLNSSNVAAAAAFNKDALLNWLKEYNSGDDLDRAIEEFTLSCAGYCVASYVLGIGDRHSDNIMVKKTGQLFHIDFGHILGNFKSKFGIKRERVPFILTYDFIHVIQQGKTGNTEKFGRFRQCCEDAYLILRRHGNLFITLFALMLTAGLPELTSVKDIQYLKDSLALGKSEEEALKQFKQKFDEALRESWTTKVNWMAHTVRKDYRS
T2 sequence (P27986 whole entry partner): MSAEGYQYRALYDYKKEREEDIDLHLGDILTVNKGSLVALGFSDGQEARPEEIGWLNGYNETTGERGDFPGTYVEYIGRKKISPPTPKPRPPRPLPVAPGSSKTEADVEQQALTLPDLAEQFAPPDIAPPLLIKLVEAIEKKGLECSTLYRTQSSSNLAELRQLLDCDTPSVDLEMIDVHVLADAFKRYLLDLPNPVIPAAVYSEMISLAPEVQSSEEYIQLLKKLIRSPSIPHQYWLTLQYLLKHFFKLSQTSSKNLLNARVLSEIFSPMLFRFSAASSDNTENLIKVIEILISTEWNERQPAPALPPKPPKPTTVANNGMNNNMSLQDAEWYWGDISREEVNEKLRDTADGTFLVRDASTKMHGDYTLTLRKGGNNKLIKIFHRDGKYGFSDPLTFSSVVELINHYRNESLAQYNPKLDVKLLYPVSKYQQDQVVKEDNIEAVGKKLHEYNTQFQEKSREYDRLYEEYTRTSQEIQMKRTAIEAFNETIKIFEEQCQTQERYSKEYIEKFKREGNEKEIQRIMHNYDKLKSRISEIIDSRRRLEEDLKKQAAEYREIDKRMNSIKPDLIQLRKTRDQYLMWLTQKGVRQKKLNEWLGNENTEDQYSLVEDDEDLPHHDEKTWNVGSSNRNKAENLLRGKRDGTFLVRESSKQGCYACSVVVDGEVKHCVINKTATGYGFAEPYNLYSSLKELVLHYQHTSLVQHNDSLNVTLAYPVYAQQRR
Kind of assay: Human PI3K beta enzyme assay (HTRF). The following applies: concentration not given, b1387 states 1.1 μM for PI3K α and β; for inhibition at 1.1 µM: read-out: p110 beta Percent Inhibition. The method, boiled down: (§1)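 Compounds were mixed with 25 uM ATP, then with 3.5 uM di-C8 PI(4,5)P2 and His-tagged PI3K isoform (β 5.25 nM, δ 0.75 nM, γ 5 nM) at pH 7.00. After 30 min at room temperature, EDTA stopped the reaction and PIP3 was measured by HTRF over 1 h.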

Another assay concerns the target T3, Human PI3K delta (Homo sapiens, UniProt O00329).
T3 construct: His (N); host or cells: SF9 insect cells (baculovirus)
Kind of assay: Human PI3K delta enzyme assay (HTRF). The note with it: concentration not given, b1389 states 1.0 μM for PI3K δ and γ; for inhibition at 1 µM: read-out: p110 delta Percent Inhibition. The method, boiled down: as §1

In a further assay the target is T4, Human PI3K gamma (Homo sapiens, UniProt P48736).
T4 construct: His (N); host or cells: SF9 insect cells (baculovirus)
T4 sequence (P48736 whole entry): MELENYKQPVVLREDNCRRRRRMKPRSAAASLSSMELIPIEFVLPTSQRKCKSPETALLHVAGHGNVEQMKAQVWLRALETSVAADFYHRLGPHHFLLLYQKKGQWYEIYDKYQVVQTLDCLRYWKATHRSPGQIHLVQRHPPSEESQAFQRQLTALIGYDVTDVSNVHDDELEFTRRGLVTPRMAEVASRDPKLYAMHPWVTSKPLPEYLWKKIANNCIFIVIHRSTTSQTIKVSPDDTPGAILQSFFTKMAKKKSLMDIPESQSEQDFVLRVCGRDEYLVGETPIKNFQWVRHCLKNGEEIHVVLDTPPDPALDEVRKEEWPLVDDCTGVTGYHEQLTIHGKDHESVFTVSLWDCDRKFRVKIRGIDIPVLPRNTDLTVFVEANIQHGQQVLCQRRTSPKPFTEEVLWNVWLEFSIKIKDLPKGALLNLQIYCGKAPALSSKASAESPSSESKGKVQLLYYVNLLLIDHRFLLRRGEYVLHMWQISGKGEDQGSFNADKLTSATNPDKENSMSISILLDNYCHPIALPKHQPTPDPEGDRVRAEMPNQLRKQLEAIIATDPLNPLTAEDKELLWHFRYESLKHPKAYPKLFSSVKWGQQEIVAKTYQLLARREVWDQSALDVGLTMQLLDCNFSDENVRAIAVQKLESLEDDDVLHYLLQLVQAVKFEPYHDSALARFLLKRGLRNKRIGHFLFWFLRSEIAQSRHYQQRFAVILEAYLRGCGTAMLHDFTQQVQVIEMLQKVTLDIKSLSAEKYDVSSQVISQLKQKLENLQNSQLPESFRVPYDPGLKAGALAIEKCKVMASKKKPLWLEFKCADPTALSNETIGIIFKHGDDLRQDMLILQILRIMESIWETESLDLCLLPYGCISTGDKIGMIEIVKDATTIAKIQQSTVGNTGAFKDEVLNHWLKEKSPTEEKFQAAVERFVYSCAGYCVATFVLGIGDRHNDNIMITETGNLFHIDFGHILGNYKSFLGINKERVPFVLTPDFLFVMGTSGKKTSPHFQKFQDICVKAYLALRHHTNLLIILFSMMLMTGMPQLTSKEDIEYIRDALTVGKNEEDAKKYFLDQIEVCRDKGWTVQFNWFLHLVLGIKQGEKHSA
Kind of assay: Human PI3K gamma enzyme assay (HTRF). The note with it: concentration not given, b1389 states 1.0 μM for PI3K δ and γ; for inhibition at 1 µM: read-out: p110 gamma Percent Inhibition. The method, boiled down:
as §1

T3 sequence (O00329 whole entry): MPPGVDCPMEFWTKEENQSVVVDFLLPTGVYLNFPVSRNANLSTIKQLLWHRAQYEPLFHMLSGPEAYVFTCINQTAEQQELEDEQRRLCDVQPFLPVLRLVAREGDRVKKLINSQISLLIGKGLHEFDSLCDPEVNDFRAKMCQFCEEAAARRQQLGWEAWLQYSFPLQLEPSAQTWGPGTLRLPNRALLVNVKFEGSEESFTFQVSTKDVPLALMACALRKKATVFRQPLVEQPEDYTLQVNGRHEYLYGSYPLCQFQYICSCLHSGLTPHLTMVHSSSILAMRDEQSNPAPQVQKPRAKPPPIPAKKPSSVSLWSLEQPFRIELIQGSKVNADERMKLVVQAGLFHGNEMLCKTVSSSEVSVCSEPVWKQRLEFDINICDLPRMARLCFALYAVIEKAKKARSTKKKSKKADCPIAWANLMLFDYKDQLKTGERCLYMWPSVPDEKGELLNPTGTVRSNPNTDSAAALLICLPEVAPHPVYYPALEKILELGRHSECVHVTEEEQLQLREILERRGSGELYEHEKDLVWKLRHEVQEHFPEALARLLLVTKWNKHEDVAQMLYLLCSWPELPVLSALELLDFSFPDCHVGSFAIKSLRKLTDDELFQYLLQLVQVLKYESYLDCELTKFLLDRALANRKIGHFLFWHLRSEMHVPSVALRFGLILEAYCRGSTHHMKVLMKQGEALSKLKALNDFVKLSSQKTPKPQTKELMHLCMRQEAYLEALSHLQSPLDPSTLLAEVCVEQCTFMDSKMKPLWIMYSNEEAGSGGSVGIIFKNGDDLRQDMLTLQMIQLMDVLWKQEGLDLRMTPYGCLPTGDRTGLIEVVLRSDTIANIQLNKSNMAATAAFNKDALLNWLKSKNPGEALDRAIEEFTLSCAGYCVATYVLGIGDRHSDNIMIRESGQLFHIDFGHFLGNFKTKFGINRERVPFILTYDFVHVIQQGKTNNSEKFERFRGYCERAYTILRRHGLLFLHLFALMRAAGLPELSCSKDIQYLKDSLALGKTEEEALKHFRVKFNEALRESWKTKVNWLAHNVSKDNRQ
T3 sequence (P27986 whole entry partner): as the sequence (P27986 whole entry partner) above
T1 sequence (P42336 whole entry): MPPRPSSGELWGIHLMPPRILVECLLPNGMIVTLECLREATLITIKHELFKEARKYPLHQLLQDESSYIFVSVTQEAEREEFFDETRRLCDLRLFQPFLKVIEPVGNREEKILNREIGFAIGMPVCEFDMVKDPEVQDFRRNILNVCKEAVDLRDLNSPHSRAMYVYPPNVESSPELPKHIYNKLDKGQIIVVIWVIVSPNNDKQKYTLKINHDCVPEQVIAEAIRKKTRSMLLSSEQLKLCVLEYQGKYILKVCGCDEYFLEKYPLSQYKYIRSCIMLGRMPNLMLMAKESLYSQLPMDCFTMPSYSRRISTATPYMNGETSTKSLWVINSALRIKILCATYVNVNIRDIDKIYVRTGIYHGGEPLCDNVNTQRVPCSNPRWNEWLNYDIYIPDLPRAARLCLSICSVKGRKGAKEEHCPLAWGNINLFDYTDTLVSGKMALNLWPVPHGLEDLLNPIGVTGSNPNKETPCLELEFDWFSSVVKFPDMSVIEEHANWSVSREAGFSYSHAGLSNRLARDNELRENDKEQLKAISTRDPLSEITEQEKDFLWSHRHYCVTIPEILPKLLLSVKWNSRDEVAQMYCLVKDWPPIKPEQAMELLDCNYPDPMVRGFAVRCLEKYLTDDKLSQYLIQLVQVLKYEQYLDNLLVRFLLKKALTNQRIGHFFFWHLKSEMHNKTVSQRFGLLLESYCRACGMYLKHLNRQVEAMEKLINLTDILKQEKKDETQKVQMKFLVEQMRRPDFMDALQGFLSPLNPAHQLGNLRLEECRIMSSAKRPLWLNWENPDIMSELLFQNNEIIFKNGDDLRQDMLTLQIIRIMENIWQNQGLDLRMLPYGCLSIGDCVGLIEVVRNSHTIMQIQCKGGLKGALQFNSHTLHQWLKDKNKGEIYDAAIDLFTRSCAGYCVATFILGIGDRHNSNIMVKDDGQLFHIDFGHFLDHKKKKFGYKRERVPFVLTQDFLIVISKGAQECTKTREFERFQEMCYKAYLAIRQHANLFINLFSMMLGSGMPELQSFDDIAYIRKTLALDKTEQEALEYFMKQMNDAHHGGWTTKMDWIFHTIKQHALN
T1 sequence (P27986 whole entry partner): as the sequence (P27986 whole entry partner) above

For the compound `CC(=O)Nc1cc(-c2cc(C(c3ccc(Cl)cc3)n3ccnc3)c(-c3nnc[nH]3)s2)ccn1` (centres unmarked) [Compound 167], the inhibition at 1.1 µM is 105% on Human PI3K alpha and 103% on Human PI3K beta. Besides, the inhibition at 1 µM was 110% at Human PI3K delta and 26% at Human PI3K gamma.
For `OC(c1ccc(-c2cccnc2)cc1)c1cc(-c2ccncc2)sc1-c1nnc[nH]1` (centres unmarked) [Compound 214], in that order: 46%, 84%, 46% and 14%.
The like results for `N#Cc1c(N2CCOC(CO)C2)sc(C(=O)O)c1Cc1ccc2ccccc2c1` (centres unmarked) [Compound 297, 4-cyano-5-[2-(hydroxymethyl)morpholin-4-yl]-3-(2-naphthylmethyl)thiophene-2-carboxylic acid] were, in that order, 26%, 104%, 77% and 33%.
In the case of `OC(c1cc2ccccc2cc1F)c1cc(-c2ccncc2)sc1-c1nnc[nH]1` (centres unmarked) [Compound 136], the “p110 alpha Percent Inhibition” value on Human PI3K alpha turned out to be 80%. On Human PI3K beta, the inhibition at 1.1 µM worked out at 110%. The inhibition at 1 µM is 109% at Human PI3K delta and 67% at Human PI3K gamma.
As to `COc1ccc(C(O)c2cc(-c3ccncc3)sc2-c2nnc[nH]2)cc1OC` (centres unmarked) [Compound 246], the inhibition at 1.1 µM on Human PI3K alpha stood at 15%; at Human PI3K beta it was 81%. Besides, the values for the inhibition at 1 µM at Human PI3K delta and at Human PI3K gamma were 43% and 8%, respectively.
For `N#Cc1c(N2CCOCC2)sc(C(=O)O)c1C(F)(F)c1ccc(Cl)cc1` [Compound 358], in that order: 13%, 43%, 51% and 32%.
As to `OC(c1ccc(Br)o1)c1cc(-c2ccncc2)sc1-c1nnc[nH]1` (centres unmarked) [Compound 260], the results for the inhibition at 1.1 µM at Human PI3K alpha and on Human PI3K beta were 37% and 74%, respectively. Also, the inhibition at 1 µM amounted to 37% at Human PI3K delta and 6% on Human PI3K gamma.
With `OC(c1ccccc1-c1cccnc1)c1cc(-c2ccncc2)sc1-c1nnc[nH]1` (centres unmarked) [Compound 276], the inhibition at 1.1 µM on Human PI3K alpha was 4%; at Human PI3K beta it was 15%. Moreover, the inhibition at 1 µM on Human PI3K delta came out at 12%; at Human PI3K gamma, 6%.
For `NS(=O)(=O)c1sc(N2CCOCC2)nc1Cc1ccc2ccccc2c1` [Compound 329, 2-morpholino-4-(naphthalen-2-ylmethyl)thiazole-5-sulfonamide], in that order: 39%, 112%, 80% and 29%.
`OC(c1cc2ccccc2cc1F)c1cc(-c2ccncc2)sc1-c1nnc[nH]1` (centres unmarked) [Compound 284]: the “p110 alpha Percent Inhibition” value on Human PI3K alpha is on record as 39%. The “p110 beta Percent Inhibition” value on Human PI3K beta is listed as 114%. Also, the “p110 delta Percent Inhibition” value at Human PI3K delta was found to be 110%. Moreover, the “p110 gamma Percent Inhibition” value at Human PI3K gamma was determined as 66%.
In the case of `OC(c1ccc(Cl)c(F)c1)c1cc(-c2ccncc2)sc1-c1nnc[nH]1` (centres unmarked) [Compound 232], the inhibition at 1.1 µM on Human PI3K alpha worked out at 38%; at Human PI3K beta, 105%. Further, the inhibition at 1 µM at Human PI3K delta amounted to 67%; on Human PI3K gamma, 26%.
In the case of `N#Cc1c(N2CCOCC2)sc(C(=O)O)c1C(F)c1ccc2ccccc2c1` (centres unmarked) [Compound 364], the “p110 alpha Percent Inhibition” value at Human PI3K alpha is given as 88%. For the same compound, on Human PI3K beta, the “p110 beta Percent Inhibition” value was 109%. Moreover, the “p110 delta Percent Inhibition” value on Human PI3K delta came to 101%. Further, the “p110 gamma Percent Inhibition” value on Human PI3K gamma worked out at 56%.
For the compound `OC(c1ccc(-c2ncccn2)cc1)c1cc(-c2ccncc2)sc1-c1nnc[nH]1` (centres unmarked) [Compound 252], the values for the inhibition at 1.1 µM at Human PI3K alpha and at Human PI3K beta were 58% and 85%, respectively. Moreover, the results for the inhibition at 1 µM on Human PI3K delta and on Human PI3K gamma were 60% and 12%, respectively.
The like results for `N#Cc1c(N2CCOCC2)sc(C(=O)O)c1Cc1ccc2sccc2c1` [Compound 311] were, in that order, 55%, 104%, 105% and 64%.
Regarding `CC(=O)Nc1cc(-c2cc(C(NCC3CCNC3)c3ccc(Cl)cc3)c(-c3nnc[nH]3)s2)ccn1` (centres unmarked) [Compound 234], the results for the inhibition at 1.1 µM at Human PI3K alpha and at Human PI3K beta were 60% and 100%, respectively. Also, the inhibition at 1 µM worked out at 104% on Human PI3K delta and 10% at Human PI3K gamma.
As to `O=C(O)c1sc(N2CCOCC2)nc1Cc1cc2ccccc2o1` [Compound 341], the inhibition at 1.1 µM is 30% at Human PI3K alpha and 110% at Human PI3K beta. The values for the inhibition at 1 µM at Human PI3K delta and on Human PI3K gamma were 98% and 30%, respectively.
Take `N#Cc1c(N2CCOCC2)sc(C(=O)O)c1Cn1cnc2ccccc2c1=O` [Compound 294, 4-cyano-5-(morpholin-4-yl)-3-[(4-oxoquinazolin-3(4H)-yl)methyl]thiophene-2-carboxylic acid]: the inhibition at 1.1 µM on Human PI3K alpha worked out at 47%; on Human PI3K beta it was 94%. The inhibition at 1 µM came out at 101% at Human PI3K delta and 35% on Human PI3K gamma.
With `COc1cc(C(O)c2cc(-c3ccnc(C)c3)sc2-c2nnc[nH]2)c(F)cc1Cl` (centres unmarked) [Compound 265], at Human PI3K alpha, the “p110 alpha Percent Inhibition” value is 64%. The “p110 beta Percent Inhibition” value at Human PI3K beta is given as 109%. For the same compound, at Human PI3K delta, the “p110 delta Percent Inhibition” value was 111%. In addition, on Human PI3K gamma, the “p110 gamma Percent Inhibition” value worked out at 64%.
Turning to `CC(=O)Nc1cc(-c2cc(C(c3ccc(Cl)cc3)N3CCC(F)(F)CC3)c(-c3nnc[nH]3)s2)ccn1` (centres unmarked) [Compound 221], the values for the inhibition at 1.1 µM on Human PI3K alpha and on Human PI3K beta were 62% and 94%, respectively. Further, the results for the inhibition at 1 µM at Human PI3K delta and on Human PI3K gamma were 100% and 8%, respectively.
On to `CC(c1ccc(Cl)c(Cl)c1)c1c(C(=O)O)sc(N2CCOCC2)c1C#N` (centres unmarked) [Compound 366], for which the “p110 alpha Percent Inhibition” value at Human PI3K alpha amounted to 66%. Also, the “p110 beta Percent Inhibition” value on Human PI3K beta was 113%. In addition, the “p110 delta Percent Inhibition” value at Human PI3K delta is 113%. Also, the “p110 gamma Percent Inhibition” value on Human PI3K gamma stood at 77%.
For the compound `Clc1cccc(Cc2nc(-c3ccncc3)sc2-c2nnc[nH]2)c1` [Compound 137], the inhibition at 1.1 µM on Human PI3K alpha stood at 12%; at Human PI3K beta, 54%. Besides, the inhibition at 1 µM at Human PI3K delta amounted to 30%; at Human PI3K gamma it was 12%.
As to `CCN(CC)C(c1ccc(Cl)cc1)c1cc(-c2ccnc(Cl)c2)sc1-c1nnc[nH]1` (centres unmarked) [Compound 243], the inhibition at 1.1 µM at Human PI3K alpha is 12%; at Human PI3K beta, 66%. Moreover, the inhibition at 1 µM at Human PI3K delta was determined as 45%; on Human PI3K gamma it was 4%.
Regarding `CC(c1ccc2cc(F)ccc2c1)c1c(C(=O)O)sc(N2CCOCC2)c1C#N` (centres unmarked) [Compound 326], the “p110 alpha Percent Inhibition” value at Human PI3K alpha was 79%. For the same compound, the inhibition at 1.1 µM on Human PI3K beta turned out to be 108%. In addition, the inhibition at 1 µM amounted to 96% on Human PI3K delta and 56% on Human PI3K gamma.
Turning to `N#Cc1c(N2CCOCC2)sc(C(=O)O)c1C(N)c1ccc2ccccc2c1` (centres unmarked) [Compound 357], the inhibition at 1.1 µM on Human PI3K alpha turned out to be 89%; at Human PI3K beta, 110%. Besides, the inhibition at 1 µM at Human PI3K delta is 110%; at Human PI3K gamma, 79%.
As to `COc1ccc2cc(Cc3nc(N4CCOCC4)sc3C(=O)O)ccc2c1` [Compound 288], the inhibition at 1.1 µM at Human PI3K alpha was 14%; on Human PI3K beta, 85%. Further, the values for the inhibition at 1 µM on Human PI3K delta and at Human PI3K gamma were 76% and 19%, respectively.
For `OC(c1cc(-c2ccncc2)sc1-c1nnc[nH]1)c1c(F)cccc1Cl` (centres unmarked) [Compound 275], the inhibition at 1.1 µM on Human PI3K alpha was found to be 17%; on Human PI3K beta it was 47%. Also, the figures for the inhibition at 1 µM at Human PI3K delta and at Human PI3K gamma were 44% and 14%, respectively.
The like results for `CC(=O)Nc1cc(-c2cc(C(c3ccc(Cl)cc3)N3CC[C@H](O)C3)c(-c3nnc[nH]3)s2)ccn1` (some centres unmarked) [Compound 164] were, in that order, 100%, 107%, 112% and 44%.
For the compound `N#Cc1c(N2CCOCC2)sc(C(=O)O)c1C(CCF)c1ccc2ccccc2c1` (centres unmarked) [Compound 365], the “p110 alpha Percent Inhibition” value at Human PI3K alpha came to 105%. Moreover, the “p110 beta Percent Inhibition” value on Human PI3K beta came out at 117%. The “p110 delta Percent Inhibition” value on Human PI3K delta was 112%. Besides, the “p110 gamma Percent Inhibition” value on Human PI3K gamma is 63%.
For `OC(c1ccc2ccccc2c1)c1cc(-c2ccncc2)sc1-c1nnc[nH]1` (centres unmarked) [Compound 208], in that order: 42%, 108%, 107% and 47%.
As to `CN(C)C(c1ccc(Cl)cc1)c1c(C(=O)O)sc(N2CCOCC2)c1C#N` (centres unmarked) [Compound 351], the inhibition at 1.1 µM on Human PI3K alpha was 15%; at Human PI3K beta, 82%. Also, the results for the inhibition at 1 µM at Human PI3K delta and on Human PI3K gamma were 79% and 46%, respectively.
The like results for `OC(c1cnc2ccccc2n1)c1cc(-c2ccncc2)sc1-c1nnc[nH]1` (centres unmarked) [Compound 263] were, in that order, 48%, 105%, 84% and 43%.
The like results for `N#Cc1c(-c2ccncc2)sc(C(=O)O)c1Cc1ccc2ccccc2c1` [Compound 143] were, in that order, 58%, 115%, 85% and 62%.
